Measurements: US4661602A, “Substituted alkyl imidazole derivatives” (G. D. Searle & Co., priority 1985, dated 1987)
Converted amounts (≈) assume the structure as drawn. Where a name gives a salt, the structure may show the parent alone.

Assays:
B. Fragilis ATCC 11295 = experiment: Anti-anaerobic activity, strain D (microtitre plate MIC/MBC); format: cell-based; conditions: Bacteroides fragilis, ATCC11295, 48 h, strain D; for MIC: 48 hours, 37° C., anaerobic chamber, lowest concentration with no detectable growth; for MBC: less than 5 colonies (99.9% reduction in viable count) after 48 hours, read-out: MBC
B. Fragilis WS-1 = experiment: Anti-anaerobic activity, strain E (microtitre plate MIC/MBC); format: cell-based; conditions: Bacteroides fragilis, 48 h, strain E; for MIC: 48 hours, 37° C., anaerobic chamber, lowest concentration with no detectable growth, read-out: MIC; for MBC: less than 5 colonies (99.9% reduction in viable count) after 48 hours, read-out: MBC
B. Fragilis NCTC 9343 = experiment: Anti-anaerobic activity, strain B (microtitre plate MIC/MBC); format: cell-based, Bacteroides fragilis; conditions: Bacteroides fragilis, NCTC9343, 48 h, strain B; for MIC: 48 hours, 37° C., anaerobic chamber, lowest concentration with no detectable growth, read-out: MIC; for MBC: less than 5 colonies (99.9% reduction in viable count) after 48 hours, read-out: MBC
B. Fragilis NCTC 9344 = experiment: Anti-anaerobic activity, strain C (microtitre plate MIC/MBC); format: cell-based; conditions: Bacteroides fragilis, NCTC9344, 48 h, strain C; for MIC: 48 hours, 37° C., anaerobic chamber, lowest concentration with no detectable growth, read-out: MIC; for MBC: less than 5 colonies (99.9% reduction in viable count) after 48 hours, read-out: MBC
B. Fragilis NCTC 10581 = experiment: Anti-anaerobic activity, strain A (microtitre plate MIC/MBC); format: cell-based, Bacteroides fragilis; conditions: Bacteroides fragilis, NCTC10581, 48 h, strain A; for MBC: less than 5 colonies (99.9% reduction in viable count) after 48 hours, read-out: MBC; for MIC: 48 hours, 37° C., anaerobic chamber, lowest concentration with no detectable growth, read-out: MIC

Clc1ccccc1N1CCN=C1C(Cn1ccnc1)c1ccccc1 (stereo not drawn) [Example 1, 1-(2-Chlorophenyl)-4,5-dihydro-2[2-(imidazol-1-yl)-1-phenylethyl]imidazole]
MIC (B. Fragilis ATCC 11295): 6.2 µg/mL (≈ 17.7 µM)
MIC (B. Fragilis WS-1): 12.5 µg/mL (≈ 35.6 µM)
MIC (B. Fragilis NCTC 9343): 12.5 µg/mL (≈ 35.6 µM)
MIC (B. Fragilis NCTC 9344): 6.2 µg/mL (≈ 17.7 µM)

Brc1ccc(N2CCN=C2C(Cn2ccnc2)c2ccccc2)c(Br)c1 (stereo not drawn) [Example 2, 1-(2,4-Dibromophenyl)-4,5-dihydro-2-[2-imidazol-1-yl)-1-phenylethyl]imidazole dihydrochloride]
MIC (B. Fragilis ATCC 11295): 1.5 µg/mL
MBC (B. Fragilis ATCC 11295): 12.5 µg/mL
MBC (B. Fragilis WS-1): 2.5 µg/mL
MBC (B. Fragilis NCTC 9343): 12.5 µg/mL
MIC (B. Fragilis NCTC 9344): 1.5 µg/mL
MBC (B. Fragilis NCTC 9344): 50 µg/mL
MBC (B. Fragilis NCTC 10581): 3.1 µg/mL

FC(F)(F)c1cccc(N2CCN=C2C(Cn2ccnc2)c2ccccc2)c1 (stereo not drawn) [Example 4, 4,5-Dihydro-2-[2-(imidazol-1-yl)-1-phenylethyl]-1-(3-trifluoromethylphenyl)imidazole hydrochloride]
MIC (B. Fragilis ATCC 11295): 12.5 µg/mL
MIC (B. Fragilis WS-1): 12.5 µg/mL
MIC (B. Fragilis NCTC 9343): 12.5 µg/mL
MIC (B. Fragilis NCTC 9344): 12.5 µg/mL
MIC (B. Fragilis NCTC 10581): 6.2 µg/mL

Clc1ccc(CN2CCN=C2C(Cn2ccnc2)c2ccccc2)c(Cl)c1 (stereo not drawn) [Example 15, 1-(2,4-Dichlorophenylmethyl)-4,5-dihydro-2-[2-(imidazol-1-yl)-1-phenylethyl]imidazole]
MIC (B. Fragilis WS-1): 6.2 µg/mL (≈ 15.5 µM)

Clc1ccc(CN2CCN=C2C(Cn2cccn2)c2ccccc2)c(Cl)c1 (stereo not drawn) [Example 16, 1-(2,4-Dichlorophenylmethyl)-4,5-dihydro-2-[1-phenyl-2-(pyrazol-1-yl)ethyl]imidazole dihydrochloride]
MIC (B. Fragilis WS-1): 100 µg/mL

Clc1ccc(CN2CCN=C2C(Cn2cncn2)c2ccccc2)c(Cl)c1 (stereo not drawn) [Example 17, 1-(2,4-Dichlorophenylmethyl)-4,5-dihydro-2-[1-phenyl-2-(1,2,4-triazol-1-yl)ethyl]imidazole dihydrochloride]
MIC (B. Fragilis ATCC 11295): 50 µg/mL
MIC (B. Fragilis WS-1): 50 µg/mL
MIC (B. Fragilis NCTC 9344): 50 µg/mL
MIC (B. Fragilis NCTC 10581): 50 µg/mL

c1ccc(CCCN2CCN=C2C(Cn2ccnc2)c2ccccc2)cc1 (stereo not drawn) [Example 18, 4,5-Dihydro-2-[2-(imidazol-1-yl)-1-phenylethyl]-1-(3-phenylpropyl)imidazoledihydrochloride]
MIC (B. Fragilis ATCC 11295): 25 µg/mL
MIC (B. Fragilis WS-1): 25 µg/mL
MIC (B. Fragilis NCTC 9343): 25 µg/mL
MIC (B. Fragilis NCTC 9344): 50 µg/mL
MIC (B. Fragilis NCTC 10581): 25 µg/mL

CCCCCCCCN1CCN=C1C(Cn1ccnc1)c1ccccc1 (stereo not drawn) [Example 19, 4,5-Dihydro-2-[2-(imidazol-1-yl)-1-phenylethyl]-1-n-octylimidazole dihydrochloride]
MIC (B. Fragilis ATCC 11295): 25 µg/mL
MBC (B. Fragilis ATCC 11295): 100 µg/mL
MIC (B. Fragilis WS-1): 12.5 µg/mL
MBC (B. Fragilis WS-1): 12.5 µg/mL
MBC (B. Fragilis NCTC 9343): 6.2 µg/mL
MIC (B. Fragilis NCTC 9344): 12.5 µg/mL
MBC (B. Fragilis NCTC 9344): 25 µg/mL
MIC (B. Fragilis NCTC 10581): 12.5 µg/mL
MBC (B. Fragilis NCTC 10581): 25 µg/mL

Clc1ccc(N2CCN=C2C(Cn2cncn2)c2ccccc2)c(Cl)c1 (stereo not drawn) [Example 20, 1-(2,4-Dichlorophenyl)-4,5-dihydro-2-[1-phenyl-2-(1,2,4-triazol-1-yl)ethyl]imidazole]
MIC (B. Fragilis ATCC 11295): 25 µg/mL (≈ 64.7 µM)
MIC (B. Fragilis WS-1): 25 µg/mL (≈ 64.7 µM)
MIC (B. Fragilis NCTC 9343): 25 µg/mL (≈ 64.7 µM)
MIC (B. Fragilis NCTC 9344): 25 µg/mL (≈ 64.7 µM)
MIC (B. Fragilis NCTC 10581): 12.5 µg/mL (≈ 32.4 µM)

Cc1nccn1CC(C1=NCCN1c1ccc(Cl)cc1Cl)c1ccccc1 (stereo not drawn) [Example 21, 1-(2,4-Dichlorophenyl)-4,5-dihydro-2-[2-(2-methylimidazol-1-yl)-1-phenylethyl]imidazole dihydrochloride]
MBC (B. Fragilis ATCC 11295): 0.8 µg/mL
MBC (B. Fragilis WS-1): 0.8 µg/mL
MIC (B. Fragilis NCTC 9343): 1.5 µg/mL
MBC (B. Fragilis NCTC 9343): 1.5 µg/mL
MBC (B. Fragilis NCTC 9344): 0.8 µg/mL
MIC (B. Fragilis NCTC 10581): 12.5 µg/mL
MBC (B. Fragilis NCTC 10581): 12.5 µg/mL

CSc1nccn1CC(C1=NCCN1c1ccc(Cl)cc1Cl)c1ccccc1 (stereo not drawn) [Example 22, 1-(2,4-Dichlorophenyl)-4,5-dihydro-2-[1-phenyl-2-(2-thiomethylimidazol-1-yl)ethyl]imidazole dihydrochloride]
MBC (B. Fragilis ATCC 11295): 3.1 µg/mL
MBC (B. Fragilis WS-1): 3.1 µg/mL
MIC (B. Fragilis NCTC 9343): 1.5 µg/mL
MBC (B. Fragilis NCTC 9343): 1.5 µg/mL
MBC (B. Fragilis NCTC 9344): 3.1 µg/mL
MIC (B. Fragilis NCTC 10581): 6.2 µg/mL
MBC (B. Fragilis NCTC 10581): 6.2 µg/mL

CC1=NCCN1CC(C1=NCCN1c1ccc(Cl)cc1Cl)c1ccccc1 (stereo not drawn) [Example 23, 1-(2,4-Dichlorophenyl)-4,5-dihydro-2-[2-(4,5-dihydro-2-methylimidazol-1-yl)-1-phenylethyl]imidazole dihydrochloride]
MIC (B. Fragilis ATCC 11295): 1.5 µg/mL
MBC (B. Fragilis ATCC 11295): 1.5 µg/mL
MBC (B. Fragilis WS-1): 1.5 µg/mL
MIC (B. Fragilis NCTC 9343): 1.5 µg/mL
MBC (B. Fragilis NCTC 9343): 3.1 µg/mL
MIC (B. Fragilis NCTC 9344): 1.5 µg/mL
MBC (B. Fragilis NCTC 9344): 1.5 µg/mL
MIC (B. Fragilis NCTC 10581): 1.5 µg/mL
MBC (B. Fragilis NCTC 10581): 1.5 µg/mL

Cc1ccc(N2CCN=C2C(Cn2ccnc2)c2ccccc2)c(C)c1 (stereo not drawn) [Example 24, 4,5-Dihydro-1-(2,4-dimethylphenyl)-2-[2-(imidazol-1-yl)-1-phenylethyl]imidazole dihydrochloride]
MIC (B. Fragilis ATCC 11295): 12.5 µg/mL
MIC (B. Fragilis WS-1): 25 µg/mL
MIC (B. Fragilis NCTC 9343): 12.5 µg/mL
MIC (B. Fragilis NCTC 9344): 12.5 µg/mL
MIC (B. Fragilis NCTC 10581): 25 µg/mL

CCCCCCN1CCN=C1C(Cn1ccnc1)c1ccccc1.Cl (stereo not drawn) [Example 25, 4,5-Dihydro-1-n-hexyl-2-[2-(imidazol-1-yl)-1-phenylethyl]imidazole hydrochloride]
MIC (B. Fragilis ATCC 11295): 100 µg/mL
MIC (B. Fragilis WS-1): 100 µg/mL
MIC (B. Fragilis NCTC 9343): 100 µg/mL
MIC (B. Fragilis NCTC 9344): 100 µg/mL
MIC (B. Fragilis NCTC 10581): 25 µg/mL

CCCCCCCCCCN1CCN=C1C(Cn1ccnc1)c1ccccc1.Cl.Cl (stereo not drawn) [Example 26, 1-n-Decyl-4,5-dihydro-2-[2-(imidazol-1-yl)-1-phenylethyl]imidazole dihydrochloride]
MBC (B. Fragilis ATCC 11295): 50 µg/mL
MBC (B. Fragilis WS-1): 3.1 µg/mL
MBC (B. Fragilis NCTC 9344): 3.1 µg/mL
MIC (B. Fragilis NCTC 10581): 2.1 µg/mL
MBC (B. Fragilis NCTC 10581): 3.1 µg/mL

Clc1ccc(N2CCN=C2C(CCn2ccnc2)c2ccccc2)c(Cl)c1 (stereo not drawn) [Example 27, 1-(2,4-Dichlorophenyl)-4,5-dihydro-2-[3-(imidazol-1-yl)-1-phenylpropyl]imidazole]
MIC (B. Fragilis ATCC 11295): 100 µg/mL (≈ 250 µM)
MIC (B. Fragilis WS-1): 12.5 µg/mL (≈ 31.3 µM)
MIC (B. Fragilis NCTC 9343): 100 µg/mL (≈ 250 µM)
MIC (B. Fragilis NCTC 9344): 100 µg/mL (≈ 250 µM)
MIC (B. Fragilis NCTC 10581): 100 µg/mL (≈ 250 µM)
